Consider three compounds from US11123398B2, “Chemotherapeutic combinations of cationic antimicrobial peptides and chemotherapeutics” (LYTIX BIOPHARMA AS, priority 2014, dated 2021).

The test system of one test is A20 lymphoma. The test can be described thus: LTX-315 with metronomic CY in A20 lymphoma model. The test is classed as in vivo, Balb/c mice. The conditions noted are these: metronomic CY, single i.p. 2 mg on day 4. How it is done: Tumor cells were harvested, washed in RPMI-1640 and injected intradermally (i.d.) into the right side of the abdomen in Balb/c mice (5×10^6 A20 cells per mouse/50 μl RPMI-1640). When animals obtained palpable tumors (20-30 mm^2) animals were injected i.p. with a single dose of CY (day 4) dissolved in saline (2.0 mg CY/500 μl saline). […] Tumor size was measured using an electronic caliper and expressed as the area of an ellipse [(maximum dimension/2)×(minimum dimension/2)×π]. Animals were then euthanized when the product of the perpendicular tumor dimensions reached 130 mm^2 or when tumor ulceration developed.

For the next test, the system named is spleen cells. The conditions noted are these: cited from earlier work.
A further test relates to Hep G2 cell line. The test is classed as cell-based, human. To be noted: 4 h. As for the experimental part:
(§1) Tumor cells were plated in 96-well flat-bottom microtitration plates (Nunc, Dutscher, Brumath, France) and incubated at 37° C. for 24 hours before treatment in 190 μl of drug-free culture medium supplemented or not with 10% FBS for adherent or suspension growing cell lines, respectively.
(§2) The adherent cell lines were washed once with 200 μl FBS-free culture medium before treatment. Tumor cells were incubated for 4 hours with 10 concentrations of compounds in ¼ dilution step with a top dose of 400 μM (range 4×10^−4 to 4×10^−10 M), with 1% (final concentration) Triton X-100 as positive control and FBS-free culture medium as negative control. The cells (190 μl) were incubated in a 200 μl final volume of FBS-free culture medium containing test substances at 37° C. under 5% CO2.
(§3) Three independent experiments were performed, each concentration being tested in quadruplicate. Control cells were treated with vehicle alone. At the end of treatments, the cytotoxic activity was evaluated by a MTS assay (see § 3.3.).
(§4) Like MTT, MTS is bioreduced by cells into a formazan product that is directly soluble in culture medium without processing, unlike MTT.
(§5) At the end of the cells treatment, 40 μl of a 0.22 μm filtered freshly combined solution of MTS (20 ml at 2 mg/ml, Ref G1111, Batch 235897, Exp March 2009, Promega, Charbonnières, France) and PMS (1 ml at 0.92 mg/ml, Ref P9625, Batch 065K0961, Sigma) in Dulbecco's Phosphate Buffered Saline (DPBS, Ref 17-513Q, Batch 6MB0152, Cambrex), were added in each well. Culture plates were incubated for 2 h at 37° C. Absorbency (OD) were measured at 490 nm in each well using VICTOR^3™ 1420 multilabeled counter (Wallac, PerkinElmer, Courtaboeuf, France).
(§6) IC50: drug concentration to obtain a 50% inhibition of cell proliferation.
(§7) The dose-response curves were plotted using XLFit 3 (IDBS, United Kingdom). The IC50 determination values were calculated using the XLFit 3 software from semi-log curves. Individual IC50 determination values as well as mean and SD values were generated.

The subject of the next test is T-47D cell line. The test is classed as cell-based, human. To be noted: 4 h. How it is done: as §1, §2, §3, §4, §5, §6, §7
Test [1] deals with panel of 37 human cancer cell lines. The test is classed as cell-based. The conditions noted are these: for IC50: 4 h; for IC50 range against 37 human cancer cell lines: conclusion. How it is done: The adherent cell lines were washed once with 200 μl FBS-free culture medium before treatment. […] compounds in ¼ dilution step with a top dose of 400 μM (range 4×10^−4 to 4×10^−10 M), with 1% (final concentration) Triton X-100 as positive control and FBS-free culture medium as negative control. The cells (190 μl) were incubated in a 200 μl final volume of FBS-free culture medium containing test substances at 37° C. under 5% CO2.
as §3, §4, §5, §6, §7

The test system of a further test is HL-60/ADR. The test can be described thus: MTS cytotoxicity assay, HL-60/ADR. The test is classed as cell-based, human. To be noted: IC50 resistant / IC50 sensitive line; doxorubicin resistance. How it is done: as §1, §2, §3, §4, §5, §6, §7
(§8) Resistance index was calculated using the following formula: […]
(§9) Resistance index was calculated for each compound for each couple of sensitive and resistant cell lines. Individual resistance index was calculated when IC50 values of both sensitive and corresponding resistant cell lines were determined within same experiment. In addition, resistance index was also calculated ratio of mean IC50 values obtained during three independent experiments.

The test system of a further test is MCF-7/mdr. Nature of the test: MTS cytotoxicity assay, MCF-7/mdr. The conditions noted are these: IC50 resistant / IC50 sensitive line; doxorubicin resistance. The test is classed as cell-based, human. As for the experimental part: as §1, §2, §3, §4, §5, §6, §7, §8, §9
For the next test, the system named is IGROV-1/CDDP. The test can be described thus: MTS cytotoxicity assay, IGROV-1/CDDP. The conditions noted are these: IC50 resistant / IC50 sensitive line; cisplatin resistance. The test is classed as cell-based, human. How it is done:
as §1, §2, §3, §4, §5, §6, §7, §8, §9
Background: Formazan colour is commonly taken as a measure of viable cells.

The test system of another test is Raji cell line. The test is classed as cell-based, human. The conditions noted are these: 4 h. How it is done:
(§10) Tumor cells were plated in 96-well flat-bottom microtitration plates (Nunc, Dutscher, Brumath, France) and incubated at 37° C. for 24 hours before treatment in 190 μl of drug-free and FBS-free culture medium.
(§11) Tumor cells were incubated for 4 hours with 10 concentrations of compounds in ¼ dilution step with a top dose of 400 μM (range 4×10^−4 to […]), with 1% (final concentration) Triton X-100 as positive control and FBS-free culture medium as negative control. The cells (190 μl) were incubated in a 200 μl final volume of FBS-free culture medium containing test substances at 37° C. under 5% CO2.
(§12) Three independent experiments were performed, each concentration being issued from quadruplicate. Control cells were treated with vehicle alone. At the end of treatments, the cytotoxic activity was evaluated by a MTS assay (see § 3.3 below).
as §4, §5
(§13) 4.1. IC50 Data was Determined as in Example 1

A further test deals with U-937 cell line. The test is classed as cell-based, human. To be noted: 4 h. As for the experimental part: as §10, §11, §12, §4, §5, §13
In test [2] the test system is panel of 10 lymphoma cell lines. The test is classed as cell-based, human. The conditions noted are these: conclusion. How it is done: as §10
[…] compounds in ¼ dilution step with a top dose of 400 μM (range 4×10^−4 to […]), with 1% (final concentration) Triton X-100 as positive control and FBS-free culture medium as negative control. The cells (190 μl) were incubated in a 200 μl final volume of FBS-free culture medium containing test substances at 37° C. under 5% CO2.
as §12, §4, §5, §13

A further test concerns RPMI 8226 cell line. The test is classed as cell-based, human. The conditions noted are these: 4 h. How it is done:
as §1, §2, §3, §4, §5, §6, §7

Another test deals with U-87 MG cell line. The test is classed as cell-based, human. To be noted: 4 h. As for the experimental part:
as §1, §2, §3, §4, §5, §6, §7

The next test relates to CCRF-CEM/VLB. Nature of the test: MTS cytotoxicity assay, CCRF-CEM/VLB. The test is classed as cell-based, human. The conditions noted are these: IC50 resistant / IC50 sensitive line. How it is done:
as §1
The adherent cell lines were washed once with 200 μl FBS-free culture medium before treatment. Tumor cells were incubated for 4 hours with 10 concentrations of compounds in ¼ dilution step with a top dose of 400 μM (range 4×10^−4 to 4×10^−10 M), with 1% (final concentration) Triton X-100 as positive control and FBS-free culture medium as negative control. […]
Three independent experiments were performed, each concentration being tested in quadruplicate. […] At the end of treatments, the cytotoxic activity was evaluated by a MTS assay (see § 3.3.). […]
At the end of the cells treatment, 40 μl of a 0.22 μm filtered freshly combined solution of MTS (20 ml at 2 mg/ml, Ref G1111, Batch 235897, Exp March 2009, Promega, Charbonnières, France) and PMS (1 ml at 0.92 mg/ml, Ref P9625, Batch 065K0961, Sigma) in Dulbecco's Phosphate Buffered Saline (DPBS, Ref 17-513Q, Batch 6MB0152, Cambrex), were added in each well. […] Absorbency (OD) were measured at 490 nm in each well using VICTOR^3™ 1420 multilabeled counter (Wallac, PerkinElmer, Courtaboeuf, France). […]
as §8

The subject of the next test is Ramos cell line. The test is classed as cell-based, human. The conditions noted are these: 4 h. As for the experimental part: as §10, §11, §12, §4, §5, §13

Non-standard residues stand in square brackets, D forms with d. Residues, ends and D or L forms follow the SMILES beside them. Bip = N[C@@H](Cc1ccc(-c2ccccc2)cc1)C(=O)O; Dip = N[C@H](C(=O)O)C(c1ccccc1)c1ccccc1

For `O=P1(N(CCCl)CCCl)NCCCO1` (stereo not shown) [CY, cyclophosphamide], the “Duration of tumor growth inhibition” value in the test on A20 lymphoma fell in the range of 7 to 10 days. Moreover, in the test on spleen cells (after CY administration), the “Relative number of CD19+ and Tregs” value is reported as “decreased sharply”; the “Relative numbers of CD4+ and CD8+ T cells in spleens and LNs” value is “increased”. For the same compound, in the test with spleen cells (single i.p. injection of 2 mg CY, fourth day after administration), the “Drop in spleen cells at low-point” value is listed as 50%.

For orientation: IC50 means the concentration at which inhibition is half-maximal. A higher IC50 goes with a need for much substance. Regarding `NCCCC[C@H](NC(=O)[C@H](Cc1c[nH]c2ccccc12)NC(=O)[C@H](CCCCN)NC(=O)[C@H](CCCCN)NC(=O)[C@@H](NC(=O)[C@H](Cc1c[nH]c2ccccc12)NC(=O)[C@H](CCCCN)NC(=O)[C@H](CCCCN)NC(=O)[C@@H](N)Cc1c[nH]c2ccccc12)C(c1ccccc1)c1ccccc1)C(N)=O` [LTX-302, W-K-K-W-Dip-K-K-W-K-NH2] (H-WKKW[Dip]KKWK-NH2; N-terminus assumed), the IC50 in the test on Hep G2 cell line was 20.1 ± 4.07 µM; in the test with T-47D cell line, 4.83 ± 0.96 µM; in [1], 12.1 ± 4.27 µM; in the test with Raji cell line, 12.5 ± 3.52 µM; in the test with U-937 cell line, 5.3 ± 2.02 µM. Also, in [1], the “IC50 range against 37 human cancer cell lines” value is “micromolar to ten micromolar range”. Also, the “Resistance index (RI), HL-60/ADR” value in the test on HL-60/ADR is 1.31. The “Resistance index (RI), MCF-7/mdr” value in the test with MCF-7/mdr was 1.23. The “Resistance index (RI), IGROV-1/CDDP” value in the test with IGROV-1/CDDP is reported as 0.33. In addition, in test [2], the “IC50 range against 10 human lymphoma cell lines” value was “micromolar range”.

As for `NCCCC[C@H](NC(=O)[C@H](Cc1c[nH]c2ccccc12)NC(=O)[C@H](Cc1c[nH]c2ccccc12)NC(=O)[C@H](CCCCN)NC(=O)[C@H](CCCCN)NC(=O)[C@H](Cc1c[nH]c2ccccc12)NC(=O)[C@H](Cc1ccc(-c2ccccc2)cc1)NC(=O)[C@H](CCCCN)NC(=O)[C@@H](N)CCCCN)C(N)=O` [LTX-313, K-K-Bip-W-K-K-W-W-K-NH2] (H-KK[Bip]WKKWWK-NH2; N-terminus assumed), the IC50 with RPMI 8226 cell line worked out at 4.01 ± 0.39 µM; in the test with U-87 MG cell line, 18.5 ± 4.86 µM; in [1], 9.6 ± 3.73 µM; in the test on Raji cell line, 16.1 ± 4.86 µM; with Ramos cell line, 3.21 ± 2.81 µM. Further, the “IC50 range against 37 human cancer cell lines” value in test [1] is listed as “micromolar to ten micromolar range”. Further, in the test with HL-60/ADR, the “Resistance index (RI), HL-60/ADR” value stood at 1.16. The “Resistance index (RI), MCF-7/mdr” value in the test with MCF-7/mdr was found to be 1.24. Also, the “Resistance index (RI), IGROV-1/CDDP” value in the test on IGROV-1/CDDP worked out at 0.49. Besides, the “Resistance index (RI), CCRF-CEM/VLB” value in the test on CCRF-CEM/VLB was found to be 0.76. In addition, the “IC50 range against 10 human lymphoma cell lines” value in test [2] was “micromolar range”.
